Reference: patent US20100119483A1, “PEPTIDE VIRAL ENTRY INHIBITORS” (Schering Corporation, priority 2004, published 2010)
Where “and” joins values, the source holds several entries; their conditions need not be identical. Equal entries are not always repeated. Ends that are not written are not given here.

Assays:
HCV pseudoparticles = assay: HCV pseudoparticle (HCVpp) entry assay in Huh7 hepatoma cells, luciferase readout; format: cell-based, hepatitis C virus; details: for HCVpp % inh: peptide library screen, first screened at 100 ug/ml, cell entry inhibition vs uninhibited control; for luciferase units, HCV entry: duplicates
Outline: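 Huh7 cells were pre-treated with peptide for 1 h at 37 °C before exposure to HCV E1/E2-pseudotyped HIV luciferase particles made in 293T cells, followed by 72 h culture and luciferase readout. Peptides were tested at 10 points, 3-fold, from 100 ug/ml; particles lacking envelope served as non-specific entry control.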

[1] = system: amphotropic murine leukemia virus; assay: AMLV pseudotyped virus entry counter-screen, same infection protocol; format: cell-based; details: for AMLVpp % inh: peptide library screen, cell entry inhibition vs uninhibited control; for luciferase units, AMLV entry: duplicates
Procedure: Infection of hepatoma cell lines with HCV pseudotype particles and screen for inhibitory peptides. The hepatoma cells, Huh7, was seeded at 8000 cells in 90 ul medium in 96-well plate. In the case of the inhibitor screen, the inhibitor was incubated with cells for one hour at 37° C. and then 50 ul viral supernatant was added to the cells 24 hours after seeding. The viral stock was pre-tittered and diluted to yield approximately 10,000 to 20,000 RLU. The cells were incubated at 37° C. with 5% CO2 for additional 72 hours and were harvested for luciferase assay. Peptide stocks were prepared in 100% DMSO at 10 mg/ml and were first screened at 100 ug/ml and then a dose responsive curve was generated with 10 points 3-fold titration starting from 100 ug/ml.
The specificity of the peptides were counter-screened with AMLV and HIV pseudotyped viruses using the same infection protocol.

L-F-T-F-S-P-R-R-H-E-T-V-Q-D-C-N [SEQ ID NO: 17]
HCVpp % inh (HCV pseudoparticles): 9%
AMLVpp % inh [1]: 16%

N-I-G-G-I-G-N-K-T-L-T-C-P-T-D-C [SEQ ID NO: 57]
HCVpp % inh (HCV pseudoparticles): 39%
AMLVpp % inh [1]: 20%

I-T-Y-N-E-S-H-S-S-D-Q-R-P-Y-C-W [SEQ ID NO: 43]
HCVpp % inh (HCV pseudoparticles): −13%
AMLVpp % inh [1]: 17%

Y-C-F-T-P-S-P-V-V-V-G-T-T-D-R-F (YCFTPSPVVVGTTDRF; not fully specified (C-terminus); printed as Y-C-F-T-P-S-P-V-V-V-G-T-T-D-R-F) [SEQ ID NO: 48]
HCVpp % inh (HCV pseudoparticles): 6%
AMLVpp % inh [1]: 21%

L-V-V-S-Q-L-L-R-I-P-Q-A-V-V-D-M [SEQ ID NO: 23]
HCVpp % inh (HCV pseudoparticles): 3%
AMLVpp % inh [1]: −1%

R-H-E-T-V-Q-D-C-N-C-S-I-Y-P-G-H [SEQ ID NO: 18]
HCVpp % inh (HCV pseudoparticles): 5%
AMLVpp % inh [1]: 17%

V-G-G-V-E-H-R-L-E-A-A-C-N-W-T-R (VGGVEHRLEAACNWTR; HCV peptide) [SEQ ID NO: 66]
HCVpp % inh (HCV pseudoparticles): 22%
AMLVpp % inh [1]: 34%

G-V-Y-H-V-T-N-D-C-S-N-A-S-I-V-Y [SEQ ID NO: 4]
HCVpp % inh (HCV pseudoparticles): −23%
AMLVpp % inh [1]: −6%

D-V-L-L-L-N-N-T-R-P-P-Q-G-N-W-F [SEQ ID NO: 52]
HCVpp % inh (HCV pseudoparticles): 10%
AMLVpp % inh [1]: 16%

V-Y-E-A-A-D-M-I-M-H-T-P-G-C-V-P [SEQ ID NO: 6]
HCVpp % inh (HCV pseudoparticles): −13%
AMLVpp % inh [1]: 10%

N-S-S-R-C-W-V-A-L-T-P-T-L-A-A-R [SEQ ID NO: 9]
HCVpp % inh (HCV pseudoparticles): 5%
AMLVpp % inh [1]: 28%

A-I-K-W-E-Y-V-L-L-L-F-L-L [SEQ ID NO: 100]
% control (HCVpp entry), lysine scanning (HCV pseudoparticles; 0.1 nM of peptide (printed for three rows), two values per peptide and row): 110 % control and 85 % control and 115 % control and 83 % control and 92 % control and 111 % control
% control (HCVpp entry), lysine scanning (HCV pseudoparticles; 0.3 nM of peptide, two values per peptide): 88 % control and 75 % control
% control (HCVpp entry), lysine scanning (HCV pseudoparticles; 1 nM of peptide, two values per peptide): 76 % control and 68 % control
% control (HCVpp entry), lysine scanning (HCV pseudoparticles; 3 nM of peptide, two values per peptide): 61 % control and 83 % control
% control (HCVpp entry), lysine scanning (HCV pseudoparticles; 10 nM of peptide, two values per peptide): 62 % control and 58 % control
luciferase units, HCV entry (HCV pseudoparticles; 0.01371742 uM of peptide (three lines)): 9526 luciferase units and 11368 luciferase units and 13637 luciferase units and 13231 luciferase units and 14358 luciferase units and 15831 luciferase units
% control (HCVpp entry), lysine scanning (HCV pseudoparticles; 30 nM of peptide, two values per peptide): 53 % control and 44 % control
luciferase units, HCV entry (HCV pseudoparticles; 0.04115226 uM of peptide): 7066 luciferase units and 7585 luciferase units
% control (HCVpp entry), lysine scanning (HCV pseudoparticles; 100 nM of peptide, two values per peptide): 31 % control and 19 % control
luciferase units, HCV entry (HCV pseudoparticles; 0.1234568 uM of peptide): 4241 luciferase units and 3590 luciferase units
% control (HCVpp entry), lysine scanning (HCV pseudoparticles; 300 nM of peptide, two values per peptide): 32 % control and 29 % control
luciferase units, HCV entry (HCV pseudoparticles; 0.3703704 uM of peptide): 4161 luciferase units and 2767 luciferase units
luciferase units, HCV entry (HCV pseudoparticles; 1.111111 uM of peptide): 3041 luciferase units and 2870 luciferase units
luciferase units, HCV entry (HCV pseudoparticles; 3.333333 uM of peptide): 4131 luciferase units and 3158 luciferase units
luciferase units, HCV entry (HCV pseudoparticles; 10 uM of peptide): 1538 luciferase units and 1360 luciferase units
luciferase units, HCV entry (HCV pseudoparticles; 30 uM of peptide): 1262 luciferase units and 1073 luciferase units
% of control at ~30 uM (HCV pseudoparticles; percentage of hepatitis C virus cellular entry at 30 μM peptide vs uninhibited control): 6%
luciferase units, AMLV entry ([1]; 0.04115226 uM of peptide): 39784 luciferase units and 45324 luciferase units
luciferase units, AMLV entry ([1]; 0.1234568 uM of peptide): 46954 luciferase units and 44234 luciferase units
luciferase units, AMLV entry ([1]; 0.3703704 uM of peptide): 42008 luciferase units and 39907 luciferase units
luciferase units, AMLV entry ([1]; 1.111111 uM of peptide): 45723 luciferase units and 43633 luciferase units
luciferase units, AMLV entry ([1]; 3.333333 uM of peptide): 70934 luciferase units and 59407 luciferase units
luciferase units, AMLV entry ([1]; 10 uM of peptide): 135633 luciferase units and 74847 luciferase units
luciferase units, AMLV entry ([1]; 30 uM of peptide): 76883 luciferase units and 56072 luciferase units

N-W-S-P-T-A-A-L-V-V-S-Q-L-L-R-I [SEQ ID NO: 22]
HCVpp % inh (HCV pseudoparticles): 54%
AMLVpp % inh [1]: −11%

G-C-P-E-R-M-A-S-C-S-P-I-D-A-F-A [SEQ ID NO: 40]
HCVpp % inh (HCV pseudoparticles): 35%
AMLVpp % inh [1]: −4%

G-S-G-P-W-L-T-P-R-C-L-V-H-Y-P-Y (GSGPWLTPRCLVHYPY; HCV peptide) [SEQ ID NO: 61]
HCVpp % inh (HCV pseudoparticles): −15%
AMLVpp % inh [1]: −8%

D-C-F-R-K-H-P-E-A-T-Y-T-K-C-G-S [SEQ ID NO: 59]
HCVpp % inh (HCV pseudoparticles): 26%
AMLVpp % inh [1]: −14%

R-I-P-Q-A-V-V-D-M-V-A-G-A-H-W-G [SEQ ID NO: 24]
HCVpp % inh (HCV pseudoparticles): 25%
AMLVpp % inh [1]: −2%
